One compound from patent US10092003B2, “Insect control device and associated methods” (Novel Textiles & Treatments LLC, priority 2014, dated 2018) can be followed below.

A short description of the series: Transfluthrin evaporation / release rate from loaded fabric substrates (aging, acetone extraction, GC-MS). Type of series: physicochemical. The source says:
In some cases, release rates of the pyrethroids may range between about 0.1 milligrams per hour and about 3 milligrams per hour, as measured by gas chromatography mass spectroscopy (GC-MS). In some embodiments, the release rate may range between about 0.1 milligrams per hour and about 3 milligrams per hour, between about 0.5 milligrams per hour and about 3 milligrams per hour, or between about 1 milligrams per hour and about 3 milligrams per hour for an overall device of the invention, as measured by GC-MS. Other release rates are also possible. The release rate of the pyrethroid may be determined, for example, by immersing a loaded substrate in a suitable solvent (e.g., acetone) and sonicating. The substrate may then be rinsed and the solvent containing the released pyrethroid is collected. […]
Fabric samples comprised of cellulose or glass were prepared with Transfluthrin using either a wet application, or a wet application followed by a dry application, as described herein. […] The amount of Transfluthrin in the extracted sample was measured using a Restel Rtx®-5MS gas chromatography—mass spectrometry column. […] Evaporation rates, as determined by solvent extraction of Transfluthrin and followed by GC-MS as described previously, for cellulose fabric wet application and wet-and-dry application samples (Samples A and B in Table 1) are plotted in FIG. 3A and FIG. 3B, respectively. […]

The structures appear in SMILES notation.

With `CC1(C)[C@H](C=C(Cl)Cl)[C@H]1C(=O)OCc1c(F)c(F)cc(F)c1F` [transfluthrin, Transfluthrin], the evaporation rate is, setting by setting: (combination of particle size distributions on 5″×4″ square fabric of cellulose) 0.5 mg per 21 days; (on an equivalent 20″×20″ cellulose fabric) 10 mg per 21 days.
